Laboratory results taken from patent US6603046B1, “Bis-aromatic a,β-unsaturated ketones” (Lica Pharmaceuticals A/S, priority 1992, dated 2003).
Where two headings read alike, the source gives them in different places.

Legend:
[1] = tested on: chloroquine resistant P. falciparum DD2 strain; assay: In vitro growth of P. falciparum DD2, 3H-hypoxanthine uptake (Example 15); format: cell-based, Plasmodium falciparum; details: title: percentage inhibition of 3H-hypoxanthine uptake
[2] = tested on: human lymphocytes; assay: Lymphocyte Proliferation Assay, 3H-thymidine incorporation (Example 13); details: Homo sapiens, Lymphocyte, read-out: inhibition of lymphocytes (lower figure)
[3] = tested on: P. falciparum; assay: P. falciparum growth in vitro (Table 14.1, strain not stated); format: cell-based; details: Plasmodium falciparum; for inhibition at 0.5 µg/mL: 0.5 μg/ml; for inhibition at 1 µg/mL: 1 μg/ml; for inhibition at 10 µg/mL: 10 μg/ml
Protocol: The P. falciparum experimental setup was as described in Example 15.
Testing of the effect of drugs and serum on the in vitro growth of the parasites. The experiments in which compounds were tested for their ability to inhibit parasite growth were performed by a modification of the method originally described by Jensen et al. (1982). Fifty μl of parasitized erythrocytes (parasitemia approximately 1%) in a concentration of 5×10^8/ml and 50 μl of RPMI medium containing different concentrations of the test compound was added to each well of a 96 well flat-bottomed microtiter plate (Nunc). The cultures were then incubated for 48 hours, 24 hours before termination of the culture adding 20 μl of 3-H-hypoxanthine (40 uCi/ml) (New England Nuclear, Boston, Mass., USA) was added to each well. The cultures were then harvested onto glass fiber filters using a Skatron cell harvester (Skatron, Lierbyen, Norway), and the incorporation of 3-H-hypoxanthine into the DNA of dividing parasites was determined by liquid scintillation spectrometry.

[4] = tested on: L. major promastigotes; assay: L. major promastigotes from 4-days cultures, 3H-thymidine uptake (Examples 5, 14); format: cell-based, Leishmania major; details: Leishmania major, Table 14.1, read-out: percentage inhibition of promastigotes (upper figure); for inhibition at 0.5 µg/mL: 0.5 μg/ml; for inhibition at 1 µg/mL: 1 μg/ml; for inhibition at 5 µg/mL: 5 μg/ml; for inhibition at 10 µg/mL: 10 μg/ml
Protocol: Parasite cultures. The same parasite culture as described in Example 4. Promastigotes were harvested on day 4 of the culture and used for the parasiticidal assay.
Effect on promastigotes. […] Following incubation, […] of ^3H-thymidine was added to each well and further incubated for 18 hrs. Promastigotes were then harvested on filter paper by means of a cell harvester (Skatron, Lierbyen, Norway), extensively washed with distilled water and counted in a scintillation counter (Minaxi Ti-Carb 4000, United Technologies, Packard, USA).
L. major promastigotes. The L. major promastigotes were prepared as described in Example 4 and harvested after 4 days.

[5] = read-out: inhibition of malaria parasites (middle figure) (converted)
[6] = 5 μg/ml, read-out: inhibition of malaria parasites (middle figure) (converted)

C=CCOc1ccc(C(=O)/C=C/c2ccc(OC)c(OC)c2)cc1 [3,4-Dimethoxy-4′-allyloxychalcone, 3,4-dimethoxy-4′-prop-2-enyloxychalcone]
Growth in % of control (mean ± SEM) ([1]; 0.5 μg/ml): 0 ± 11.3%
Growth in % of control (mean ± SEM) ([1]; 1 μg/ml): 9.4 ± 15.8%
Growth in % of control (mean ± SEM) ([1]; 5 μg/ml): 16.2 ± 5.5%
Growth in % of control (mean ± SEM) ([1]; 10 μg/ml): 52.8 ± 4.7%

C=CCOc1ccc(C(=O)/C=C/c2cc(OC)cc(OC)c2)cc1 [3,5-Dimethoxy-4′-allylchalcone, 3,5-dimethoxy-4′-prop-2-enyloxychalcone]
Growth in % of control (mean ± SEM) ([1]; 0.5 μg/ml): 9.1 ± 5.2%
Growth in % of control (mean ± SEM) ([1]; 1 μg/ml): 3.4 ± 4.7%
Growth in % of control (mean ± SEM) ([1]; 5 μg/ml): 44 ± 8.1%
Growth in % of control (mean ± SEM) ([1]; 10 μg/ml): 79.1 ± 10.5%

COc1ccc(/C=C/C(=O)c2ccc(O)cc2)c(OC)c1 [drawing 70]
inhibition at 0.5 µg/mL [2]: 1.5%
inhibition at 1 µg/mL [2]: 6.3%
inhibition at 5 µg/mL [2]: 2.4%
inhibition at 10 µg/mL [2]: 4%
inhibition at 0.5 µg/mL [3, 5]: 2.2%
inhibition at 1 µg/mL [3, 5]: 14.8%
inhibition at 5 µg/mL [3, 6]: 31.6%
inhibition at 10 µg/mL [3, 5]: 64.2%
inhibition at 0.5 µg/mL [4]: 20 ± 20.6%
inhibition at 1 µg/mL [4]: 29 ± 22.2%
inhibition at 5 µg/mL [4]: 66.9 ± 15.9%
inhibition at 10 µg/mL [4]: 90.9 ± 7.4%

CCOc1ccc(/C=C/C(=O)c2ccccc2O)c(OCC)c1 [2,4-Diethoxy-2′-hydroxychalcone]
Growth in % of control (mean ± SEM) ([1]; 0.5 μg/ml): 23.1 ± 8.3%
Growth in % of control (mean ± SEM) ([1]; 1 μg/ml): 20.8 ± 8.8%
Growth in % of control (mean ± SEM) ([1]; 5 μg/ml): 33.7 ± 8.2%
Growth in % of control (mean ± SEM) ([1]; 10 μg/ml): 55.3 ± 7.4%

COc1ccc(/C=C/C(=O)c2ccccc2)c(OC)c1 [drawing 67]
inhibition at 0.5 µg/mL [2]: 9.1%
inhibition at 1 µg/mL [2]: 9.2%
inhibition at 5 µg/mL [2]: 2%
inhibition at 10 µg/mL [2]: 3.1%
inhibition at 5 µg/mL ([3]; read-out: inhibition of malaria parasites (middle figure)): 35.6%
inhibition at 0.5 µg/mL [3, 5]: 0%
inhibition at 1 µg/mL [3, 5]: 14.7%
inhibition at 10 µg/mL [3, 5]: 81.8%
inhibition at 0.5 µg/mL [4]: 14.5 ± 11.6%
inhibition at 1 µg/mL [4]: 27 ± 13.7%
inhibition at 5 µg/mL [4]: 77.8 ± 11.3%
inhibition at 10 µg/mL [4]: 95.5 ± 3.8%

COc1ccc(OC)c(/C=C/C(=O)c2ccccc2)c1 [2,5-Dimethoxychalcone]
Growth in % of control (mean ± SEM) ([1]; 0.5 μg/ml): 11 ± 7.7%
Growth in % of control (mean ± SEM) ([1]; 1 μg/ml): 5.5 ± 5.1%
Growth in % of control (mean ± SEM) ([1]; 5 μg/ml): 27.1 ± 5.3%
Growth in % of control (mean ± SEM) ([1]; 10 μg/ml): 58.8 ± 6.4%

COc1ccc(OC)c(/C=C/C(=O)c2ccc(O)cc2)c1 [drawing 71]
inhibition at 0.5 µg/mL [2]: 3.2%
inhibition at 1 µg/mL [2]: 6.9%
inhibition at 5 µg/mL [2]: 78.8%
inhibition at 10 µg/mL [2]: 98.2%
inhibition at 0.5 µg/mL [3, 5]: 15.2%
inhibition at 1 µg/mL [3, 5]: 23.1%
inhibition at 5 µg/mL [3, 6]: 71%
inhibition at 10 µg/mL [3, 5]: 93.1%
inhibition at 0.5 µg/mL [4]: 34.3%
inhibition at 1 µg/mL [4]: 61.9%
inhibition at 5 µg/mL [4]: 96.2%
inhibition at 10 µg/mL [4]: 99.1%
